Numbers after ± are expanded uncertainties.

For this series the following is noted: 313.15 K; Liquid; Closed cell (Static) method.
For orientation: vapor or sublimation pressure means the pressure of vapour in equilibrium with the condensed phase. For the compound `C=CCCCC` [hex-1-ene], the “vapor or sublimation pressure” value is recorded as 45 ± 0.092 kPa. In the case of `Cc1ccccc1` [toluene], the “vapor or sublimation pressure” value was found to be 7.876 ± 0.022 kPa. Turning to `CCC(C)O` (centres undefined) [butan-2-ol], the “vapor or sublimation pressure” value is on record as 6.05 ± 0.02 kPa. As to `CCCCO` [butan-1-ol], the “vapor or sublimation pressure” value is 2.506 ± 0.015 kPa.
